Measurements published in PubChem BioAssay AID1918931 (Molecular Pharmacology Branch, DTP, NCI, 2023).

Tested on: 138582-337-R-J1-PDC complex spheroid viability
Experiment: Anticancer human tumor 138582-337-R-J1-PDC patient-derived Merkel cell tumor cell line growth inhibition
Details: for IC50: curve of first compound; for viability, T/C: stronger effect = lower value
How it was run: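 Drug combinations with the LSD1 inhibitor iadademstat tested on tumor cells co-cultured as spheroids with endothelial cells and mesenchymal stem cells. Concentrations descended in half-log increments from clinical Cmax or 10 microM.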

[1] = second compound 0.1 µM, first compound 0.0316 µM
[2] = second compound 0.1 µM, first compound 0.1 µM
[3] = second compound 0.1 µM, first compound 0.316 µM
[4] = second compound 0.1 µM, first compound 1 µM
[5] = second compound 0.1 µM, first compound 3.16 µM
[6] = second compound 0.1 µM, first compound 10 µM
[7] = second compound 0.316 µM, first compound 0.0316 µM
[8] = second compound 0.316 µM, first compound 0.1 µM
[9] = second compound 0.316 µM, first compound 0.316 µM
[10] = second compound 0.316 µM, first compound 1 µM
[11] = second compound 0.316 µM, first compound 3.16 µM
[12] = second compound 0.316 µM, first compound 10 µM
[13] = second compound 1 µM, first compound 0.0316 µM
[14] = second compound 1 µM, first compound 0.1 µM
[15] = second compound 1 µM, first compound 0.316 µM
[16] = second compound 1 µM, first compound 1 µM
[17] = second compound 1 µM, first compound 3.16 µM
[18] = second compound 1 µM, first compound 10 µM
[19] = second compound 3.16 µM, first compound 0.0316 µM
[20] = second compound 3.16 µM, first compound 0.1 µM
[21] = second compound 3.16 µM, first compound 0.316 µM
[22] = second compound 3.16 µM, first compound 1 µM
[23] = second compound 3.16 µM, first compound 3.16 µM
[24] = second compound 3.16 µM, first compound 10 µM
[25] = second compound 10 µM, first compound 0.0316 µM
[26] = second compound 10 µM, first compound 0.1 µM
[27] = second compound 10 µM, first compound 0.316 µM
[28] = second compound 10 µM, first compound 1 µM
[29] = second compound 10 µM, first compound 3.16 µM
[30] = second compound 10 µM, first compound 10 µM
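Note: spheroids exposed to agents for 7 days.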
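Throughout, for viability, T/C: 100% = DMSO vehicle control viability.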

| SMILES | IC50 (second compound 0.1 µM) [nM] | IC50 (second compound 0.316 µM) [nM] | IC50 (second compound 1 µM) [nM] | IC50 (second compound 3.16 µM) [nM] | IC50 (second compound 10 µM) [nM] | viability, T/C [1] [%] | viability, T/C [2] [%] | viability, T/C [3] [%] | viability, T/C [4] [%] | viability, T/C [7] [%] | viability, T/C [8] [%] | viability, T/C [9] [%] | viability, T/C [10] [%] | viability, T/C [13] [%] | viability, T/C [14] [%] | viability, T/C [15] [%] | viability, T/C [16] [%] | viability, T/C [19] [%] | viability, T/C [20] [%] | viability, T/C [21] [%] | other results |
| --- | --- | --- | --- | --- | --- | --- | --- | --- | --- | --- | --- | --- | --- | --- | --- | --- | --- | --- | --- | --- | --- |
| CC(C)c1c(-c2ccccc2)nc2c(C#N)c[nH]n2c1=O + NC1CCC(NC2CC2c2ccccc2)CC1 | > 10000 | > 10000 | > 10000 | > 10000 | > 10000 | 104 | 103 | 93.8 | 92.3 | 94.2 | 102 | 94.8 | 82 | 86.3 | 93.9 | 85.7 | 92 | 90 | 86.5 | 97.3 | viability, T/C [5]: 86%; viability, T/C [6]: 89.7%; viability, T/C [11]: 97.1%; viability, T/C [12]: 102%; viability, T/C [17]: 90%; viability, T/C [18]: 106%; viability, T/C [22]: 79.5%; viability, T/C [23]: 81.5%; viability, T/C [24]: 83.5%; viability, T/C [25]: 96.7%; viability, T/C [26]: 82.7%; viability, T/C [27]: 73.4%; viability, T/C [28]: 88.2%; viability, T/C [29]: 80.4%; viability, T/C [30]: 79.7% |
| CC1COCCN1c1cc(-c2ccnn2C)c2ccnc(-c3ccn[nH]3)c2n1 (stereo not given) + NC1CCC(NC2CC2c2ccccc2)CC1 | 441 | 231 | 454 | 332 | 332 | 77.4 | 75.8 | 53.8 | 36.7 | 91.3 | 65 | 47.9 | 38.2 | 80 | 70 | 50.3 | 44.7 | 77.3 | 69.2 | 47.9 | viability, T/C (second compound 0.1 µM, first compound 0.00316 µM): 90.8%; viability, T/C (second compound 0.1 µM, first compound 0.01 µM): 91.8%; viability, T/C (second compound 0.316 µM, first compound 0.00316 µM): 76.9%; viability, T/C (second compound 0.316 µM, first compound 0.01 µM): 104%; viability, T/C (second compound 1 µM, first compound 0.00316 µM): 110%; viability, T/C (second compound 1 µM, first compound 0.01 µM): 101%; viability, T/C (second compound 3.16 µM, first compound 0.00316 µM): 89%; viability, T/C (second compound 3.16 µM, first compound 0.01 µM): 77.9%; viability, T/C [22]: 40.1%; viability, T/C (second compound 10 µM, first compound 0.00316 µM): 75.7%; viability, T/C (second compound 10 µM, first compound 0.01 µM): 73.4%; viability, T/C [25]: 72.6%; viability, T/C [26]: 67.4%; viability, T/C [27]: 50.2%; viability, T/C [28]: 42.6% |
| COc1ccc([C@@H](O)c2cc(-c3ncnc4cc(N5CCOCC5)ccc34)c(F)cc2Cl)nn1 + NC1CCC(NC2CC2c2ccccc2)CC1 | 1560 | 2570 | 1480 | 1800 | 1410 | 80.6 | 96.2 | 76.5 | 54.6 | 76.4 | 77.3 | 62.6 | 63.1 | 83.1 | 74.5 | 71.7 | 50.3 | 81.1 | 90.1 | 69.1 | viability, T/C [5]: 44.9%; viability, T/C [6]: 32.9%; viability, T/C [11]: 46.8%; viability, T/C [12]: 33.3%; viability, T/C [17]: 44.7%; viability, T/C [18]: 33.7%; viability, T/C [22]: 61.2%; viability, T/C [23]: 40.7%; viability, T/C [24]: 24.2%; viability, T/C [25]: 87.2%; viability, T/C [26]: 72.5%; viability, T/C [27]: 75.9%; viability, T/C [28]: 47.1%; viability, T/C [29]: 43.4%; viability, T/C [30]: 14.2% |
